Measured values reported in patent US20120010177A1, “MicroRNA Modulators and Method for Identifying And Using The Same” (The Wistar Institute / North Carolina State University, priority 2008, published 2012).

System: miR-21
Assay: High throughput primary miR-21 FLuc reporter assay (concentration-response)
Assay type: cell-based, human
Settings: Homo sapiens
Outline: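 HeLa cells carrying a Luc-miR-21 firefly luciferase reporter were treated with compound for 48 h. miR-21 inhibition was read as increased luciferase signal. Concentration-response data were fitted with a four-parameter logistic model.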

Row | SMILES | AC50 [µM]
1 | COP(=O)(OC)C(Nc1ccc(C)cc1)c1ccc([N+](=O)[O-])cc1 (stereo not shown) [Compound 286] | 10.4

Same assay, conditions: Homo sapiens, Table 12 singletons; read-out: AC50

Row | SMILES | AC50 [µM]
2 | O=C(CN1c2ccc(Br)cc2-c2ccccc2S1(=O)=O)N1CCCCC1 [Compound 280] | 7.36
3 | C[C@]12CC[C@H]3C(=CCc4cc(O)ccc43)[C@@H]1CCC2=O [Compound 281] | 7.36
4 | CN(C)c1ccc(-n2cccc2/C=N/n2cnnc2)cc1 [Compound 282] | 8.26
5 | Cn1nc(NC(=O)C(F)(F)F)c2ncc(-c3ccc(Cl)cc3)nc21 [Compound 283] | 9.27
6 | NC1=NC(=O)/C(=C/c2cn(Cc3ccccc3)c3ccccc23)S1 [Compound 284] | 9.27
7 | CCCCC12CN3CCN(CC(C3)/C1=N/NC(=O)c1ccccc1N)C2 [Compound 285] | 9.27
8 | COc1ccc(/C=C/C(=O)NC2CCCCCC2)cc1S(=O)(=O)N1CCOCC1 [Compound 287] | 10.4
9 | CCC(=O)Oc1ccc(NC(=O)CSCc2ccccc2)cc1 [Compound 288] | 11.7
10 | COc1ccc(C(CC(=O)Nc2ccc(C(C)=O)cc2)N2Cc3ccccc3C2=O)cc1 (stereo not shown) [Compound 289] | 11.7
11 | CNc1cc([N+](=O)[O-])ccc1/N=C/C=C(\O)c1cccs1 [Compound 290] | 11.7
12 | CCc1ccc(NC(=O)NCCCN2CCCC2=O)cc1 [Compound 291] | 11.7
13 | CCOC(=O)c1s/c(=N/C(=O)c2c(F)cccc2F)n(C)c1C [Compound 293] | 13.1
14 | O=c1c(=Nc2ccccc2O)c(=O)c2ccccc12 [Compound 294] | 13.1
15 | CC1(C)Cc2nc3oc4c(S)ncnc4c3cc2CO1 [Compound 295] | 13.1
16 | Cc1nc2ccc(/N=C(\S)N3CCC(C)CC3)cc2nc1C [Compound 296] | 13.1
17 | Cc1ccc2nc(C)c(/C=C/C(=O)c3ccco3)cc2c1 [Compound 297] | 14.7
18 | O=C(c1ccc(COCC(F)(F)F)cc1)N1CCN(c2ccccn2)CC1 [Compound 298] | 14.7
19 | Nc1ccc2c(c1)Cc1cc([N+](=O)[O-])ccc1-2 [Compound 299] | 14.7
20 | CC(C)N1C(=O)CN(C2CCCCCC2)C(=O)C1c1ccccc1F (stereo not shown) [Compound 301] | 14.7
21 | CC(/C=C/c1ccccc1)=N\N/C(S)=N/C(C)C [Compound 302] | 14.7
22 | CCOc1cccc(OCCOc2ccccc2[N+](=O)[O-])c1 [Compound 303] | 14.7

Row | SMILES | AC50 [µM]
23 | Cc1ccc(/N=C(/c2cccs2)N2CCOCC2)cc1 [Compound 304] | 14.7
24 | Cc1ccc2c(c1)NCC(C(=O)NC1CCC(C)CC1)O2 (stereo not shown) [Compound 305] | 14.7
25 | CCN(CC)C(=O)CS/C(=N/C#N)Nc1ccccc1F [Compound 306] | 14.7
26 | CCc1cccc(CC)c1N(COC)C(=O)Cn1c(CC)nc2ccccc21 [Compound 307] | 14.7
27 | CC(C)(C)c1ccc(CN2C(=O)c3ccccc3S2(=O)=O)cc1 [Compound 308] | 14.7
28 | CCn1c(=O)c(C(=O)Nc2ccccc2S(N)(=O)=O)c(O)c2ccccc21 [Compound 309] | 14.7
29 | COc1ccc(-c2nn3c(-c4ccccc4)nnc3s2)cc1OC [Compound 310] | 14.7
30 | Cn1nc2c3ccccc3n(Cc3ccccc3)c2nc1=S [Compound 311] | 14.7
31 | CC(=O)O[C@H]1C[C@@]2(C)[C@@H](C[C@@H](O)[C@H]3[C@@]4(C)CC[C@@H](O)[C@@H](C)C4CC[C@@]32C)/C1=C(\CCC=C(C)C)C(=O)O (stereo partly shown) [Compound 312] | 14.7
32 | Cc1cc(CC(C)C)n(-c2nc3ccccc3c(=O)n2OCC(N)=O)n1 [Compound 313] | 14.7
33 | c1csc(-c2nn3c(C4COc5ccccc5O4)nnc3s2)c1 (stereo not shown) [Compound 314] | 16.5
34 | O=C(CC1NCCc2ccccc21)Nc1cccc(Cl)c1 (stereo not shown) [Compound 315] | 16.5
35 | CNc1nc(C)c(C(=O)OCc2ccccc2)s1 [Compound 316] | 16.5
36 | O=C(NC12CC3CC(CC(C3)C1)C2)N1CCN(C(=O)c2ccco2)CC1 [Compound 317] | 16.5
37 | CCc1ccc(N2C(=O)Cc3c2nc(N)c(C#N)c3N)cc1 [Compound 318] | 16.5
38 | CCCNC(=O)OCc1cccnc1Sc1ccc(C)cc1 [Compound 319] | 16.5
39 | COC(=O)c1ccc(CN2C(=O)NC3(CCCCC3)C2=O)cc1 [Compound 320] | 16.5
40 | O=c1n(Cc2ccccc2)nc2n1-c1ccccc1SC2 [Compound 321] | 16.5
41 | CC(=O)N1N=C(c2ccc(C)cc2)OC1c1cccnc1 (stereo not shown) [Compound 322] | 16.5
42 | CCCCCc1nc2c(=O)n(C)c3ccccc3c2o1 [Compound 324] | 16.5
43 | CN1CCN(/N=C/c2nc(-c3ccc(Cl)cc3)n3ccccc23)CC1 [Compound 325] | 16.5

Row | SMILES | AC50 [µM]
44 | C#CN/C(=N\CC=C)SCCc1ccccc1 [Compound 326] | 16.5
45 | c1ccc(-c2nnc(CN3CCCCC3)o2)cc1 [Compound 327] | 16.5
46 | O=c1c(NCc2cccs2)nccn1-c1ccc(F)cc1 [Compound 328] | 16.5
47 | CCOC(=O)N1CCN(C(=O)CSCc2ccccc2Cl)CC1 [Compound 329] | 16.5
48 | O=C(Nc1ccc(N2CCOCC2)cc1)c1cc(F)c(F)cc1Cl [Compound 330] | 16.5
49 | CCC(C)NC(=O)c1ccc2c(c1)S(=O)(=O)c1ccccc1C2=O (stereo not shown) [Compound 331] | 16.5
50 | CSc1c(C#N)c(N)c(C#N)c2c1COC(C)(C)C2 [Compound 332] | 18.5
51 | CCOC(=O)Nc1ccc2c(c1)ncn2C1CCCCC1 [Compound 333] | 18.5
52 | CC1Oc2ccccc2N(CC(=O)NCc2cccs2)C1=O (stereo not shown) [Compound 334] | 18.5
53 | CCOC(=O)C1CCCN(Cc2cccc(Cl)c2)C1 (stereo not shown) [Compound 335] | 18.5
54 | Nc1cccc(CCc2nc3ccccc3[nH]2)c1 [Compound 336] | 18.5
55 | CC(=O)N(C)c1ccc(N/C(S)=N/c2cccc3ccccc23)cc1 [Compound 337] | 18.5
56 | Cn1c(=N)n(CC(=O)C(C)(C)C)c2ccccc21 [Compound 338] | 18.5
57 | O=C(NC1CCCCCC1)C1CCCN(c2ncccn2)C1 (stereo not shown) [Compound 339] | 18.5
58 | COC(=O)C1C(=O)C=C(Nc2ccc(F)cc2F)CC1c1ccccc1 (stereo not shown) [Compound 340] | 18.5
59 | CCN(CC)CCCNC(=O)CCC(=O)Nc1ccc2nc(N3CCC(C)CC3)cc(C)c2c1 [Compound 341] | 18.5
60 | Cc1ccc(/C=N/NC(=O)NC2CCCCC2)o1 [Compound 342] | 18.5
61 | CCNc1ccc(/N=N/c2c(C)n(C)n(-c3ccccc3)c2=O)cc1 [Compound 344] | 16.5
62 | O=C(CN1c2ccc(Br)cc2-c2ccccc2[S+]1(=O)[O-])N1CCCCC1 [Compound 345] | 9.27
63 | Cc1ccc2oc(=O)c(/C=C(\O)c3cccs3)nc2c1 [Compound 346] | 14.7
64 | COc1ccc(C2Nc3ccccc3C(=O)N2c2ccc(C)cc2)cc1Cn1nc(C)c([N+](=O)[O-])c1C (stereo not shown) [Compound 347] | 3.09

Same assay, conditions: Table 12 singletons; concentration-response curve class

Row | SMILES | Curve Class
65 | Cc1cccc2c1-c1sc(C(=O)Nc3cccnc3)cc1CO2 [Compound 323, CC1═C/C═C\C2═C\1\C3═C(CO2)\C═C(/S3)C(═O)NC4═C/C═C\N═C\4] | −2.2

Same assay, conditions: Table 12 singletons; negative values as printed

Row | SMILES | Efficacy
66 | Cc1cccc2c1-c1sc(C(=O)Nc3cccnc3)cc1CO2 [Compound 323, CC1═C/C═C\C2═C\1\C3═C(CO2)\C═C(/S3)C(═O)NC4═C/C═C\N═C\4] | −70.23

Same assay, conditions: Table 12 singletons; read-out: AC50

Row | SMILES | AC50 [µM]
67 | Cn1nc(NC(=O)C(F)(F)F)c2ncc(-c3ccc(Cl)cc3)nc21 [Compound 292] | 13.1
68 | Cc1cccc2c1-c1sc(C(=O)Nc3cccnc3)cc1CO2 [Compound 323, CC1═C/C═C\C2═C\1\C3═C(CO2)\C═C(/S3)C(═O)NC4═C/C═C\N═C\4] | 16.5
69 | COC(=O)C1C(=O)C=C(Nc2ccc(F)cc2F)CC1c1ccccc1 (stereo not shown) [Compound 343] | 18.5

System: A172 cells (glioblastoma cells)
Assay: Cell viability assay, A172 cells, alone or with antiproliferative agent
Assay type: cell-based
Settings: Homo sapiens, A 172; 10 μM Compound + 5FU 0.5 μM; read-out: Cell Viability A172 Cells, Compound + 5FU (0.5 μM)
Description: (§1) In these assays, A172 cells (glioblastoma cells) were contacted with a miR-21 inhibitor either alone or in combination with a conventional antiproliferative agent (i.e., 5-fluorouracil or curcumin). At the concentrations indicated, no toxic effects on HEK293T (human embryonic kidney) cells were observed.

Row | SMILES | viability at 10 µM [%]
70 | O=C1c2cc3c(cc2-c2[nH]c(=O)c4ccccc4c21)OCO3 [Compound 5] | 45
71 | COc1ccc2c(c1N)CCC1C2CC[C@]2(C)C(=O)CCC12 (stereo partly shown) [Compound 7] | 54
72 | COc1cc2c(cc1N)C1CC[C@]3(C)C(=O)CCC3C1CC2 (stereo partly shown) [Compound 8] | 78

Same assay, conditions: Homo sapiens, A 172; 10 μM Compound + Curcumin 10 μM; read-out: Cell Viability A172 Cells, Compound + Curcumin (10 μM)

Row | SMILES | viability at 10 µM [%]
73 | O=C1c2cc3c(cc2-c2[nH]c(=O)c4ccccc4c21)OCO3 [Compound 5] | 40
74 | COc1ccc2c(c1N)CCC1C2CC[C@]2(C)C(=O)CCC12 (stereo partly shown) [Compound 7] | 43
75 | COc1cc2c(cc1N)C1CC[C@]3(C)C(=O)CCC3C1CC2 (stereo partly shown) [Compound 8] | 57

Same assay, conditions: Homo sapiens, A 172; 10 μM Compound alone; read-out: Cell Viability A172 Cells, Compound

Row | SMILES | viability at 10 µM [%]
76 | O=C1c2cc3c(cc2-c2[nH]c(=O)c4ccccc4c21)OCO3 [Compound 5] | 70
77 | COc1ccc2c(c1N)CCC1C2CC[C@]2(C)C(=O)CCC12 (stereo partly shown) [Compound 7] | 87
78 | COc1cc2c(cc1N)C1CC[C@]3(C)C(=O)CCC3C1CC2 (stereo partly shown) [Compound 8] | 100

System: HEK293T (human embryonic kidney) cells
Assay: Cell viability assay, HEK293T cells
Assay type: cell-based
Settings: 10 μM Compound
Description: as §1

Row | SMILES | Cell Viability HEK293T Cells [%]
79 | O=C1c2cc3c(cc2-c2[nH]c(=O)c4ccccc4c21)OCO3 [Compound 5] | 79
80 | COc1ccc2c(c1N)CCC1C2CC[C@]2(C)C(=O)CCC12 (stereo partly shown) [Compound 7] | 86
81 | COc1cc2c(cc1N)C1CC[C@]3(C)C(=O)CCC3C1CC2 (stereo partly shown) [Compound 8] | 89
82 | C[C@]12CC[C@@H]3c4ccc(O)cc4CC[C@H]3[C@@H]1CCC2=O [estrone, reference compound] | 85
